Experimental findings from ChEMBL document CHEMBL1142207, “Aspirin antagonism in isoniazid treatment of tuberculosis in mice” (2007) are described below.

Experiment [1] has as its system Mycobacterium tuberculosis. Kind of experiment: Decrease in spleen infection of BALB/c mouse infected with Mycobacterium tuberculosis H37Rv at 10 mg/kg, po five times/week after 1 month relative to control. The experiment is classed as functional.
The subject of experiment [2] is Mycobacterium tuberculosis. Kind of experiment: Decrease in spleen infection of BALB/c mouse infected with Mycobacterium tuberculosis H37Rv at 40 mg/kg, po five times/week after 1 month relative to control. Format: functional.
For experiment [3], the system named is Mycobacterium tuberculosis. In words: Decrease in spleen infection of BALB/c mouse infected with Mycobacterium tuberculosis H37Rv at 20 mg/kg, po five times/week after 1 month relative to control. Format: functional.
Experiment [4] concerns Mycobacterium tuberculosis. Kind of experiment: Clearance of Mycobacterium tuberculosis H37Rv in BALB/c mouse lung at 25 mg/kg, po five times/week after 1 month relative to control. Set-up: dose 25 mg/kg. The experiment is classed as functional, organism-based.
Experiment [5] deals with Mycobacterium tuberculosis. In words: Clearance of Mycobacterium tuberculosis H37Rv in BALB/c mouse spleen at 25 mg/kg, po five times/week after 1 month relative to control. Format: functional, organism-based. Set-up: dose 25 mg/kg.

SMILES strings stand for the structures. Active and inactive are the calls of the source. The rule behind the calls is not given here.

Regarding `CC(=O)Oc1ccccc1C(=O)O` [ASPIRIN], the Log10 cfu was 3.48 in experiment [1], 4.38 in experiment [2] and 4.55 in experiment [3].

Turning to `NNC(=O)c1ccncc1`, the outcome in experiment [4] and in experiment [5] was Active.
